Results on 2 compounds are retold here after EP3175850B1, “PHARMACEUTICAL COMPOSITION FOR ALLEVIATING OR TREATING GOUT AND USES THEREOF” (Industrial Technology Research Institute, priority 2014, dated 2016).

Common to all, as to format: in vivo
The subject of assay [1] is neutrophil cell (CD45^+/Ly6G^+ cells). As to the kind of experiment: Mouse air pouch model (MSU crystal-induced acute gouty arthritis): neutrophil cell density in exudate by flow cytometry. To be noted: Example 4, Table 3; for INHIBITION RATE (neutrophil cell density): CD45^+/Ly6G^+ cells, vs blank control, topical 100 mg paste/mouse (5 mg total active); for AVERAGE VALUES (normalized cell density, neutrophil CD45^+/Ly6G^+ cells): topical 100 mg paste/mouse (5 mg total active) 15 hours prior to MSU, exudate 5 hours after MSU, blank control 360. The protocol: (§1) Mouse Air pouch model: this mouse model may be referenced to the methods and the experimental details as in the published article "Role of S100A8 and S100A9 in neutrophil recruitment in response to monosodium urate monohydrate crystals in the air-pouch model of acute gouty arthritis", Arthritis Rheum 2003 Aug, 48(8):2310-20.
(§2) Before the experiment, the mice are shaved to remove back hair. At day 0 sterile filtered air (2 ml/per mouse) is injected through 0.22 µm microfilter to the back of each mouse subcutaneously, so that a pseudosynovial cavity is formed in each mouse. At day 3, an air booster (3 ml/mouse) is again given to each mouse, so that the air pouch is maintained round. Later, the mice are weighed and grouped so that the average weight of the mice in each group is about the same. At day 6 monosodium urate (MSU) crystal suspension (5 mg in 2 ml/per mouse) is injected into the air pouch. Topical application of the paste (100 mg paste/per mouse) is administrated 15 hours prior to MSU stimulation. At a specific time (5 hours) after the injection of MSU, the mice were euthanized with an excess of carbon dioxide, 2 ml PBS per mouse is injected into the air pouch, and the air pouch is carefully cut to collect the exudate. The collected exudate is subjected to the centrifugation at 1,000 rpm, 4°C for 5 minutes, and the supernatant is then placed in a 96-well plate and stored at -20°C. An ELISA kit (purchased from R&D Systems) is used to analyze the contents of IL-1β and IL-6 in the exudate. The precipitate is resuspended and reacted with 1 ml red blood cell lysis buffer (RBC lysis buffer) for one minute to remove the red blood cells, followed by adding 1 ml PBS to terminate the reaction, centrifuged at 1,000 rpm, 25°C for 5 minutes, and the supernatant is discarded. The precipitate is then resuspended in 1 ml PBS as the cell suspension and the cell suspension is filtered by filter membrane (BD Falcon 100 µm Nylon filter strainer) and the filtered cell suspension is dispensed into several tubes (0.25 ml/tube) for subsequent cell counting or for labelling with various differentiation antigen markers (such as cluster of differentiation (CD) markers). The flow cytometry is used for cell counting of the various cells.
(§3) In order to investigate the anti-gout efficacy of AG02-RA1 and AG04-RA1, either used alone or in combination, the experiments are performed to test AG02-RA1 alone, AG04-RA1 alone and the combination(s) of AG02-RA1 :AG04-RA1 in the ratio of 50:50 (Composition Nos. 1, 2 and 3 as shown in Table 1). The total weight of the content of AG02-RA1 and/or AG04-RA1 is 5 mg, accounting for 5 % of the total weight of the test sample paste composition. […]

Assay [2] relates to leukocyte cell (CD45^+ cells). Put plainly: Mouse air pouch model (MSU crystal-induced acute gouty arthritis): leukocyte cell density in exudate by flow cytometry. To be noted: for AVERAGE VALUES (normalized leukocyte cell density): Example 4, Table 2, topical 100 mg paste/mouse (5 mg total active) 15 hours prior to MSU, exudate 5 hours after MSU, blank control 803; for INHIBITION RATE (leukocyte cell density): Example 4, Table 2, vs blank control, topical 100 mg paste/mouse (5 mg total active) 15 hours prior to MSU, 5 hours after MSU. How it is done:
as §1, §2, §3

The subject of a further assay is interleukin-6 (mIL-6). As to the kind of experiment: Mouse air pouch model (MSU crystal-induced): IL-6 content of exudate by ELISA. The conditions noted are these: Example 4, Figure 4; topical 100 mg paste/mouse (5 mg total active) 15 hours prior to MSU; exudate 5 hours after MSU. How it is done: as §1
(§4) Before the experiment, the mice are shaved to remove back hair. At day 0 sterile filtered air (2 ml/per mouse) is injected through 0.22 µm microfilter to the back of each mouse subcutaneously, so that a pseudosynovial cavity is formed in each mouse. At day 3, an air booster (3 ml/mouse) is again given to each mouse, so that the air pouch is maintained round. Later, the mice are weighed and grouped so that the average weight of the mice in each group is about the same. At day 6 monosodium urate (MSU) crystal suspension (5 mg in 2 ml/per mouse) is injected into the air pouch. Topical application of the paste (100 mg paste/per mouse) is administrated 15 hours prior to MSU stimulation. At a specific time (5 hours) after the injection of MSU, the mice were euthanized with an excess of carbon dioxide, 2 ml PBS per mouse is injected into the air pouch, and the air pouch is carefully cut to collect the exudate. The collected exudate is subjected to the centrifugation at 1,000 rpm, 4°C for 5 minutes, and the supernatant is then placed in a 96-well plate and stored at -20°C. […]

The test system of a further assay is interleukin-1β (mIL-1β). As to the kind of experiment: Mouse air pouch model (MSU crystal-induced): IL-1β content of exudate by ELISA. The conditions noted are these: Example 4, Figure 3; topical 100 mg paste/mouse (5 mg total active) 15 hours prior to MSU; exudate 5 hours after MSU. How it is done:
as §1, §4

Some results are limits rather than exact numbers.

For the compound “3,7,11,15(17)-cembratetraene-16,2:19,6-diolide-3484-37-5(3E,12E)-3,12-dimethyl-8-methylene-6,18-dioxa-tricyclo[14.2.1.0.5,9]nonadeca-3,12,16(19)-triene-7,17-dione [AG02-RA1]”, in assay [1], the “INHIBITION RATE (neutrophil cell density)” value is recorded as 63% and the “AVERAGE VALUES (normalized cell density, neutrophil CD45^+/Ly6G^+ cells)” value is listed as 133 cells*10^3/ml. Besides, in assay [2], the “AVERAGE VALUES (normalized leukocyte cell density)” value turned out to be 1609 cells* 10^3/ml and the “INHIBITION RATE (leukocyte cell density)” value is recorded as -100%.

As to `CC(=O)OCC=Cc1ccc(OC(C)=O)cc1` [AG04-RA1, 4-(3-acetoxy-propenyl)-phenyl acetate], the “inhibition rate of interleukin-6 secretion” value with interleukin-6 (mIL-6) is greater than 50%. Also, in assay [1], the “INHIBITION RATE (neutrophil cell density)” value is 43% and the “AVERAGE VALUES (normalized cell density, neutrophil CD45^+/Ly6G^+ cells)” value was 205 cells*10^3/ml. For the same compound, in assay [2], the “AVERAGE VALUES (normalized leukocyte cell density)” value is 670 cells* 10^3/ml and the “INHIBITION RATE (leukocyte cell density)” value stood at 17%. For the same compound, in the assay with interleukin-1β (mIL-1β), the “inhibition rate of interleukin-1β secretion” value is on record as greater than 50%.
